The supplement of paper PMC8671470
± gives the standard deviation of the averaged measurements.

Assays:
Settings in all cases: 72 h
HL-60 [1] = test: cell viability (% survival relative to DMSO control); higher = less cytotoxic
Summary of the method: (§1)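 HL-60 cells grown in RPMI 1640 with 10% FBS were rescreened against the full library in 384-well plates, in duplicate, at five tenfold concentrations from 1 to 10,000 nM, alongside DMSO or 100 nM of one of three metabolic inhibitors for 72 h at 37 °C, 5% CO2. Reference wells contained DMSO or 10 μM proteasome inhibitor. Viability was read with CellTiter-Glo and normalised to these reference wells, and where reported, area under the curve was taken from four-parameter log-logistic fits in drc and PharmacoGx.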

HL-60 [2] = test: area under dose-response curve (viability, 1 nM-10 uM) (fraction (0-1)); higher = more sensitive
Summary of the method: as §1

[3] = test system: myeloid leukemia patient primary cells Pat.10; test: cell viability (% survival relative to DMSO control); higher = less cytotoxic
Summary of the method: (§2)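 Mononuclear cells from patients with AML or CML were thawed, purified on Ficoll and placed in RPMI 1640 with 10% FBS at 10,000 cells/well on 384-well plates. The plates came pre-printed with 70 compounds at five tenfold concentrations spanning 1–10,000 nM, in duplicate, and cells were exposed for 72 h. CellTiter-Glo gave viability, scaled between DMSO wells and wells with 10 μM proteasome inhibitor. Where reported, area under the curve was obtained from log-logistic fits with four parameters using the drc and PharmacoGx R packages.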

[4] = test system: myeloid leukemia patient primary cells Pat.15; test: as above
Summary of the method: as §2

[5] = test system: myeloid leukemia patient primary cells Pat.2; test: as above
Summary of the method: as §2

[6] = test system: myeloid leukemia patient primary cells Pat.11; test: as above
Summary of the method: as §2

[7] = test system: myeloid leukemia patient primary cells Pat.9; test: as above
Summary of the method: as §2

[8] = test system: myeloid leukemia patient primary cells Pat.6; test: as above
Summary of the method: as §2

[9] = test system: myeloid leukemia patient primary cells Pat.4; test: as above
Summary of the method: as §2

[10] = test system: myeloid leukemia patient primary cells Pat.8; test: as above
Summary of the method: as §2

[11] = test system: myeloid leukemia patient primary cells Pat.5; test: as above
Summary of the method: as §2

[12] = test system: myeloid leukemia patient primary cells Pat.12; test: as above
Summary of the method: as §2

[13] = test system: myeloid leukemia patient primary cells Pat.3; test: as above
Summary of the method: as §2

[14] = test system: myeloid leukemia patient primary cells Pat.13; test: as above
Summary of the method: as §2

[15] = test system: myeloid leukemia patient primary cells Pat.1; test: as above
Summary of the method: as §2

[16] = test system: myeloid leukemia patient primary cells Pat.14; test: as above
Summary of the method: as §2

[17] = test system: myeloid leukemia patient primary cells Pat.7; test: as above
Summary of the method: as §2

Cc1cc2c(C(C)C)c(O)c(O)c(C=O)c2c(O)c1-c1c(C)cc2c(C(C)C)c(O)c(O)c(C=O)c2c1O [Gossypol]
cell viability [%], HL-60 [1]
Settings | 0.001 µM | 0.01 µM | 0.1 µM | 1 µM | 10 µM
co-treatment: AZD3965 100 nM | 101 ± 4.7 | 106 ± 1.4 | 96.1 ± 3.3 | 102 ± 5.7 | 2.22 ± 0.25
co-treatment: DMSO vehicle | 101 ± 2.6 | 104 ± 7.8 | 96.3 ± 2.1 | 102 ± 3.7 | 2.19 ± 0.23
co-treatment: GSK2194069 100 nM | 107 ± 2.8 | 104 ± 11 | 90 ± 5.4 | 87.6 ± 11 | 2.81 ± 0.4
co-treatment: pictilisib 100 nM | 104 ± 3.8 | 100 ± 3.6 | 93.97 ± 0.14 | 91.4 ± 10 | 1.94 ± 0.31

Settings | area under dose-response curve, co-treatment: AZD3965 100 nM | area under dose-response curve, co-treatment: DMSO vehicle | area under dose-response curve, co-treatment: GSK2194069 100 nM | area under dose-response curve, co-treatment: pictilisib 100 nM | cell viability, 1 nM [%] | cell viability, 10 nM [%] | cell viability, 100 nM [%] | cell viability, 1000 nM [%] | cell viability, 10000 nM [%]
HL-60 [2] | 0.123 | 0.124 | 0.154 | 0.145 | – | – | – | – | –
[3] | – | – | – | – | 89.2 | 41.6 | 43.3 | 2.16 | 89.9
[4] | – | – | – | – | 98.2 | 85.9 | 89.7 | 95.7 | 27.3
[5] | – | – | – | – | 96.6 | 92.2 | 93 | 80 | 34.6
[6] | – | – | – | – | 98.5 | 98.9 | 91.9 | 84.6 | 11.6
[7] | – | – | – | – | 63.1 | 7.88 | 22 | 6.35 | 28.7
[8] | – | – | – | – | 99.8 | 80.8 | 84.4 | 83.7 | 20.9
[9] | – | – | – | – | 84.4 | 90.7 | 77.1 | 81.5 | 8.19
[10] | – | – | – | – | 82.2 | 89.7 | 89.9 | 84.7 | 6.5
[11] | – | – | – | – | 98.7 | 6.75 | 22.8 | 5.84 | 93.9
[12] | – | – | – | – | 98.6 | 94 | 88.1 | 99.1 | 50.5
[13] | – | – | – | – | 96.5 | 28 | 70.6 | < 0 | 3.08
[14] | – | – | – | – | 87.8 | 69.7 | 83.6 | 75.4 | 15
[15] | – | – | – | – | 82.1 | 92.5 | 92.2 | 78.8 | 14.3
[16] | – | – | – | – | > 100 | 42.9 | 69.1 | 0.583 | 63.3
[17] | – | – | – | – | 72.1 | 28.8 | 60.8 | < 0 | < 0
